11 compounds from article PMC10041525, “New Dual Inhibitors of Bacterial Topoisomerases with Broad-Spectrum Antibacterial Activity and In Vivo Efficacy against Vancomycin-Intermediate Staphylococcus aureus” (Journal of Medicinal Chemistry, 2023) can be followed below.

Values after ≈ are worked out from the molar mass of the structure shown. Values joined by “and” are separate entries in the source; they are usually repeats but may differ in a detail not shown here. Equal values may be shown once. Read-outs that look alike come from different tables or passages of the source.

In one data set the test system is E. coli ATCC 25922. In words: IHMA QC MIC. Type of data set: cell-based. The conditions noted are these: for MIC: Escherichia coli, ATCC25922, read-out: MIC (QC, repeated tests).
The test system of a further data set is P. aeruginosa ATCC 27853. The data set can be described thus: IHMA QC MIC. Type of data set: cell-based. The settings on record: for MIC: Pseudomonas aeruginosa, ATCC27853, read-out: MIC (QC, repeated tests).
A further data set has as its system E. coli ATCC 35218. In words: IHMA QC MIC. Type of data set: cell-based. The conditions noted are these: for MIC: Escherichia coli, ATCC35218, read-out: MIC (QC, repeated tests). On the procedure:
(§1) The panel of Hungarian clinical isolates and controls measured following the same method as detailed above, and albeit measurements were carried out in 384-well microtiter plates (Corning Inc.).

A further data set can be described thus: in vitro. Format: in vitro ADME, mouse. The settings on record: male, CD-1, mouse; for fraction unbound at 4 h, 5 μM: plasma (pooled), mouse plasma, read-out: fu, fraction unbound; for recovery at 4 h, 5 μM: plasma protein binding assay. On the procedure:
The PPB studies were performed by Selvita d.o.o. (Zagreb, Croatia) in mouse plasma (CD-1 male, pooled, commercially obtained from BioIVT) via equilibrium dialysis. Compounds were assayed at 5 μM (0.5% DMSO) in two replicates, and incubation time was 4 h at 37 °C. Samples were taken at 0 min and 4 h. Aliquots from both buffer and plasma compartment matrix were matched and mixed with 6 volumes of STOP solution (acetonitrile/methanol (2:1) + internal standard – diclofenac) and analyzed by LC–MS/MS. Assay controls were caffeine (low), verapamil (moderate binding), and nicardipine (very high binding), and protein contamination was checked.

The next data set has as its system A. baumannii ATCC 17978. The data set can be described thus: IHMA QC MIC. Type of data set: cell-based. The conditions noted are these: for MIC: Acinetobacter baumannii, ATCC17978, read-out: MIC (QC, repeated tests). On the procedure:
as §1

Data set [1] deals with Neisseria gonorrhoeae (n = 12). In words: MIC broth microdilution at IHMA Europe. Format: cell-based. The settings on record: for MIC: Neisseria gonorrhoeae, read-out: MIC.
Data set [2] has as its system N. gonorrhoeae ATCC 49226. In words: IHMA QC MIC. Format: cell-based. The settings on record: Neisseria gonorrhoeae, ATCC49226; QC strain N. gonorrhoeae ATCC 49226, test date 2021-11-18; read-out: MIC. From the text:
Supplement jm2c01905_si_004.xlsx, sheet "QC" | column: MIC [µg/mL]

Turning to “piperacillin/tazobactam [Piperacillin Tazobactam]”, the “MIC (QC, repeated tests)” value is 2 µg/mL in the data set on E. coli ATCC 25922; 4 µg/mL and 8 µg/mL against P. aeruginosa ATCC 27853; 1 µg/mL with E. coli ATCC 35218.

What is called MIC is the lowest concentration that inhibits growth of the organism. As to `CO/N=C(\C(=O)N[C@@H]1C(=O)N2C(C(=O)[O-])=C(C[N+]3(C)CCCC3)CS[C@H]12)c1csc(N)n1` [Cefepime, cefepime], the MIC with E. coli ATCC 25922 and in the data set with E. coli ATCC 35218 was at most 0.25 µg/mL in each case.

As a reminder, the fraction unbound is free concentration divided by total concentration. With `Cc1[nH]c(C(=O)Nc2nc3c(N4CCOC(C(F)(F)F)C4)cc(C(=O)O)cc3s2)c(Cl)c1Cl` (stereo not shown) [7i, 2-(3,4-Dichloro-5-methyl-1H-pyrrole-2-carboxamido)-4-(2-(trifluoromethyl)morpholino)benzo[d]thiazole-6-carboxylic Acid], in “in vitro”, the fraction unbound at 4 h, 5 μM is below 0.001 and the recovery at 4 h, 5 μM stood at 110%.

For the compound `C[C@@H](O)[C@H]1C(=O)N2C(C(=O)O)=C(S[C@@H]3CN[C@H](C(=O)N(C)C)C3)[C@H](C)[C@H]12` [Meropenem, meropenem], the MIC with E. coli ATCC 25922 is at most 0.06 µg/mL; in the data set with P. aeruginosa ATCC 27853, 0.5 µg/mL (≈ 1.3 µM); with E. coli ATCC 35218 it was at most 0.06 µg/mL. Moreover, the “MIC (QC, repeated tests)” value against P. aeruginosa ATCC 27853 was 1 µg/mL (≈ 2.61 µM).

As to `Cc1[nH]c(C(=O)Nc2nc3c(N4CCOCC4C)cc(C(=O)O)cc3s2)c(Cl)c1Cl` (stereo not shown) [7b, 2-(3,4-Dichloro-5-methyl-1H-pyrrole-2-carboxamido)-4-(3-methylmorpholino)benzo[d]thiazole-6-carboxylic Acid], in the data set “in vitro”, the fraction unbound at 4 h, 5 μM stood at 0.013 and the recovery at 4 h, 5 μM came to 84.5%.

Regarding `CN(C)c1cc(NC(=O)CNC(C)(C)C)c(O)c2c1C[C@H]1C[C@H]3[C@H](N(C)C)C(O)=C(C(N)=O)C(=O)[C@@]3(O)C(O)=C1C2=O` [Tigecycline, tigecycline], the minimal inhibitory concentration (MIC) stood at 0.12 µg/mL (≈ 0.205 µM) in the data set on E. coli ATCC 25922, 8 µg/mL (≈ 13.7 µM) in the data set with P. aeruginosa ATCC 27853, 0.25 µg/mL (≈ 0.427 µM) in the data set with A. baumannii ATCC 17978 and 0.12 µg/mL (≈ 0.205 µM) in the data set with E. coli ATCC 35218. Also, the “MIC (QC, repeated tests)” value against P. aeruginosa ATCC 27853 was 4 µg/mL (≈ 6.83 µM); in the data set on A. baumannii ATCC 17978, 0.5 µg/mL (≈ 0.854 µM).

Consider `O=C(O)c1cn(C2CC2)c2cc(N3CCNCC3)c(F)cc2c1=O` [ciprofloxacin], for which the “Cumulative % at MIC” value in data set [1] (MIC 0.004 µg/mL) was found to be 41.7%; in data set [1] (MIC >[…] µg/mL), 100.0%. In addition, the “No. of isolates at MIC” value in data set [1] (MIC 0.004 µg/mL) worked out at 5; in data set [1] (MIC >[…] µg/mL), 2. Also, the MIC was above 8 µg/mL in data set [1] (isolate IHMA 1123853); 4 µg/mL (≈ 12.1 µM) in data set [1] (isolate IHMA 1130935); 4 µg/mL (≈ 12.1 µM) in data set [1] (isolate IHMA 1130989); 8 µg/mL (≈ 24.1 µM) in data set [1] (isolate IHMA 1130991); above 8 µg/mL in data set [1] (isolate IHMA 1137292); 8 µg/mL (≈ 24.1 µM) in data set [1] (isolate IHMA 1145734). For the same compound, the minimal inhibitory concentration (MIC) in data set [1] (isolate IHMA 1145735) came out at 4 µg/mL (≈ 12.1 µM); in data set [1] (isolate IHMA 1165897), 0.004 µg/mL (≈ 0.0121 µM); in data set [1] (isolate IHMA 1194748) it was 0.004 µg/mL (≈ 0.0121 µM); in data set [1] (isolate IHMA 1194750) it was 0.004 µg/mL (≈ 0.0121 µM); in data set [1] (isolate IHMA 1546199) it was 0.004 µg/mL (≈ 0.0121 µM); in data set [1] (isolate IHMA 1546215), 0.004 µg/mL (≈ 0.0121 µM). Moreover, in data set [2], the MIC was found to be 0.004 µg/mL (≈ 0.0121 µM).

For the compound `Cc1[nH]c(C(=O)Nc2nc3c(N4CCOC[C@H]4C)cc(C(=O)O)cc3s2)c(Cl)c1Cl` [7c, (R)-2-(3,4-Dichloro-5-methyl-1H-pyrrole-2-carboxamido)-4-(3-methylmorpholino)benzo[d]thiazole-6-carboxylic Acid], in the data set “in vitro”, the fraction unbound at 4 h, 5 μM turned out to be 0.016 and the recovery at 4 h, 5 μM was found to be 93%.

In the case of `COc1c(N2C[C@@H]3CCCN[C@@H]3C2)c(F)cc2c(=O)c(C(=O)O)cn(C3CC3)c12` [Moxifloxacin, moxifloxacin], the MIC with E. coli ATCC 25922 is at most 0.5 µg/mL; in the data set on P. aeruginosa ATCC 27853, 2 µg/mL (≈ 4.98 µM); in the data set with A. baumannii ATCC 17978, at most 0.5 µg/mL; with E. coli ATCC 35218, at most 0.5 µg/mL.

Turning to `Cc1[nH]c(C(=O)Nc2nc3c(N4C[C@H]5CC[C@@H](C4)O5)cc(C(=O)O)cc3s2)c(Cl)c1Cl` [7g, 4-((1R,5S)-8-Oxa-3-azabicyclo[3.2.1]octan-3-yl)-2-(3,4-dichloro-5-methyl-1H-pyrrole-2-carboxamido)benzo[d]thiazole-6-carboxylic Acid], in the data set “in vitro”, the fraction unbound at 4 h, 5 μM turned out to be 0.004 and the recovery at 4 h, 5 μM stood at 93.5%.

In the case of `Cc1[nH]c(C(=O)Nc2nc3c(N4CCOC[C@@H]4C)cc(C(=O)O)cc3s2)c(Cl)c1Cl` [7d, (S)-2-(3,4-Dichloro-5-methyl-1H-pyrrole-2-carboxamido)-4-(3-methylmorpholino)benzo[d]thiazole-6-carboxylic Acid], in the data set “in vitro”, the free fraction (fraction unbound) at 4 h, 5 μM is 0.011 and the recovery at 4 h, 5 μM was 89.5%.
